The values below are quoted from earlier work in patent US9849144B2 (Healios Oncology Nutrition, LLC, priority 2013, dated 2017).

For one series, the system named is CaCo-2 cells. Particulars: glucose containing disaccharides.
For series [1] the following is noted: in vivo.

Regarding `OC[C@H]1O[C@H](O[C@H]2O[C@H](CO)[C@@H](O)[C@H](O)[C@H]2O)[C@H](O)[C@@H](O)[C@@H]1O` [trehalose, α-D-glucopyranosyl-1,1-α-D-glucopyranoside], the “relative humidity up to which crystalline form is stable and remains free flowing” value is listed as “up to 94 % relative humidity”. Moreover, the “increase of GLN uptake” value in the series with CaCo-2 cells is reported as “a thousand fold”.

Turning to `NC(=O)CC[C@H](N)C(=O)O` [Glutamine, L-glutamine], the “daily dose with no safety or toxicity concerns” value in series [1] is reported as “up to 40 grams a day”.
